Results published in patent publication EP0840781B1, “METHODS AND DEVICES FOR THE REMOVAL OF PSORALENS FROM BLOOD PRODUCTS” (Cerus Corporation, priority 1995, dated 1996).

Tests used:
platelet concentrate = experiment: Maintenance of pH of platelet concentrate; type: cell-based, human; details: T = test unit (150 µM S-59, 3 Joules/cm^2 UVA, RD 8 hours on day 1)
Protocol: To measure the effects of the present compounds and methods of decontamination on platelet function using these four indicators, four samples were prepared for each compound tested, two control samples and two containing compound. […] These were each transferred under sterile conditions to 50 ml centrifuge tubes, then aliquots of each unit were transferred into a second set of 50 ml sterile centrifuge tubes. […] The samples were pipetted gently up and down to mix. […] Samples were treated in one of two different sized bags, having either 3 ml or 8 ml capacity. […] For each compound tested, two control samples without compound were prepared by again removing aliquots of platelet concentrate (17 ml if using an 8 ml bag, 4 ml if using a 3 ml bag) from the same one of the first set of 50 ml centrifuge tubes from which the compound sample was drawn, and dividing into Medibags, as before. […]

[1] = tested on: platelets suspended in 35% plasma/65% PAS III; experiment: Partitioning and distribution of S-59 in platelet concentrate before and after UVA (3H-S-59, HPLC); details: C0 = 50 µM (FIG. 25A)
Excerpt: […] When designing a "capture" or "scrub" device for psoralen removal, an important consideration is the identification and quantification of the residual levels of low molecular weight photoproducts. Several properties of the platelet mixture (e.g., lipid content, platelet content, hemoglobin/RBC content) can affect the final partitioning of psoralen and the amount of each photoproduct that must be removed during the capture or scrub process.
Upon addition of S-59 to platelets, the S-59 rapidly partitions, establishing an equilibrium between S-59 in the plasma and S-59 within the platelets. […] In addition, higher percentages of S-59 will partition to the platelets if long incubation periods (e.g., greater than 60 minutes) occur between the addition of S-59 and illumination with UVA. The amount of S-59 which partitions to the platelets ultimately determines how much S-59 remains associated with platelets, how much is associated with plasma macromolecules, and how much remains as free photoproduct.
During the UVA illumination process, S-59 undergoes a photochemical reaction to form several low molecular weight photoproducts in addition to associating with macromolecules in both the platelet and the plasma fractions. […]
The S-59 which is not amenable to removal by the scrub/capture process can also be monitored using ^3H-labeled S-59. […]

platelets [2] = experiment: Platelet morphology score; type: cell-based, human; details: T = test unit (150 µM S-59, 3 Joules/cm^2 UVA, RD 8 hours on day 1)
Protocol: (§1) For the evaluation of in vitro platelet function, platelet samples were withdrawn from both the control and test units before treatment and after treatment on days 2, 5, and 7. The following parameters were analyzed: pH, pO2, pCO2, bicarbonate concentration, platelet count, morphology, aggregation, platelet shape change, hypotonic shock response, lactate production, glucose consumption, ATP secretion, p-selectin expression, and microvesicle formation. Several of these assays, including pH, morphology score, platelet shape change, and hypotonic shock response, have been reported in the literature to correlate with in- vivo post-transfusion recovery and survival. The Student's paired t-test was used for statistical analysis.

platelets [3] = experiment: Hypotonic shock response (HSR) of platelets; type: cell-based, human; details: T = test unit (150 µM S-59, 3 Joules/cm^2 UVA, RD 8 hours on day 1)
Protocol: as §1

Cc1oc2c(C)c3oc(=O)cc(C)c3cc2c1COCCN [Compound 2, 4'-(4-amino-2-oxa)butyl-4,5',8-trimethylpsoralen]
pH (platelet concentrate; Day 2): 6.94±0.05 | pH (platelet concentrate; Day 5): 6.92±0.06 | pH (platelet concentrate; Day 7): 6.91±0.05 | time to S-59 equilibrium (uptake by platelets) [1]: approximately two | Morphology (Out Of 400) (platelets [2]; Day 2): 302±16 | Morphology (Out Of 400) (platelets [2]; Day 5): 290±20 | Morphology (Out Of 400) (platelets [2]; Day 7): 274±12 | (%) HSR (platelets [3]; Day 2): 52±5 % | (%) HSR (platelets [3]; Day 5): 45±3% | (%) HSR (platelets [3]; Day 7): 48±8%
